How the values were obtained:
[1] = tested on: Monographella nivalis (Microdochium nivale); assay: Monographella nivalis (Microdochium nivale) / liquid culture (foot rot cereals); format: cell-based; settings: PDB, 24° C., 4-5 days after application, read-out: control of Monographella nivalis (inhibition of growth, photometric)
Method in brief: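 Cryostored conidia in potato dextrose broth were added to test compound dispensed from DMSO at 200 ppm. Plates were kept at 24° C, and growth inhibition was read photometrically 4-5 days after application.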

[2] = tested on: Puccinia recondita f. sp. Tritici; assay: Puccinia recondita f. sp. tritici / wheat / leaf disc curative (brown rust); format: in vivo; settings: foliar, wheat leaf segments cv Kanzler, applied 1 day after inoculation, assessed 6-8 days after application, read-out: control of Puccinia recondita f. sp. Tritici (percent disease control compared to untreated)
Method: Puccinia recondita f. Sp. Tritici/Wheat/Leaf Disc Curative (Brown Rust): Wheat leaf segments cv Kanzler were placed on agar in 24-well plates. The leaf segments were inoculated with a spore suspension of the fungus. The plates were stored in darkness at 19° C. and 75% relative humidity. The formulated test compound diluted in water was applied at an application rate of 200 ppm 1 day after inoculation. […] Tritici at 200 ppm when compared to untreated control leaf disks under the same conditions, which show extensive disease development: 2, 13, 16, 23, 30, 61, 75, 89, 103, 173, 174

[3] = tested on: Fusarium graminearum, syn. Gibberella zeae; assay: whole plant or invertebrate; format: in vivo; settings: in Triticum aestivum, 144 h, read-out: control of Gibberella zeae (preventative fungicidal activity)
[4] = tested on: Glomerella lagenarium (Colletotrichum lagenarium); assay: Glomerella lagenarium (Colletotrichum lagenarium) / liquid culture (anthracnose); format: cell-based; settings: Colletotrichum orbiculare, PDB, 24° C., 3-4 days after application, read-out: control of Glomerella lagenarium (inhibition of growth, photometric)
Method in brief: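 Cryopreserved conidia suspended in potato dextrose broth were added to compound in DMSO applied at 200 ppm. Plates incubated at 24° C; growth inhibition read photometrically 3-4 days after application.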

Pythium ultimum = Pythium ultimum / liquid culture (seedling damping off); format: cell-based; settings: Globisporangium ultimum, potato dextrose broth, 24° C., 2-3 days after application, read-out: control of Pythium ultimum (inhibition of growth, photometric)
Method in brief: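 Test compound in DMSO at 200 ppm was incubated with mycelia fragments and oospores in potato dextrose broth at 24 °C. Growth inhibition was read photometrically 2-3 days after application.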

[5] = tested on: Mycosphaerella arachidis (Cercospora arachidicola); assay: Mycosphaerella arachidis (Cercospora arachidicola) / liquid culture (early leaf spot); format: cell-based; settings: PDB, 24° C., 4-5 days after application, read-out: control of Mycosphaerella arachidis (inhibition of growth, photometric)
Method in brief: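 Conidia suspended in potato dextrose broth and added to test compound from DMSO solution at 200 ppm. Incubated at 24 °C; growth inhibition read photometrically 4-5 days after application.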

Sclerotinia sclerotiorum = Sclerotinia sclerotiorum liquid culture (cottony rot / white mold); format: cell-based; settings: PDB, 24° C., 3-4 days after application, read-out: control of Sclerotinia sclerotiorum (inhibition of growth, photometric)
Method in brief: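 Mycelia fragments of Sclerotinia sclerotiorum in potato dextrose broth were added to compound in DMSO. Cultures incubated at 24° C; growth inhibition determined photometrically 3-4 days after application.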

Fusarium culmorum = assay: microbe, parasite or virus in culture; format: cell-based; settings: read-out: control of Fusarium culmorum (inhibition of growth, photometric)
Plasmopara viticola = Plasmopara viticola / grape / leaf disc preventative; format: in vivo; settings: foliar, grape vine leaf disks, inoculated 1 day after application, assessed 6-8 days after application, read-out: control of Plasmopara viticola (percent disease control compared to untreated)

| Structure (SMILES) | inhibition at 20 ppm [1] | pest or weed control at 200 ppm [2] | pest or weed control at 20 ppm [3] | melting point | inhibition at 20 ppm [4] | inhibition at 20 ppm (Pythium ultimum) | inhibition at 20 ppm [5] | inhibition at 20 ppm (Sclerotinia sclerotiorum) | inhibition at 20 ppm (Fusarium culmorum) | pest or weed control at 200 ppm (Plasmopara viticola) |
| --- | --- | --- | --- | --- | --- | --- | --- | --- | --- | --- |
| CCCn1c(-n2ncnc2N)nc2cnccc21 [Compound 13, 2-(1-propylimidazo[4,5-c]pyridin-2-yl)-1,2,4-triazol-3-amine] | ≥ 80% | ≥ 80% | ≥ 80% | 210 to 212 °C | ≥ 80% | ≥ 80% | ≥ 80% | – | – | – |
| CCc1cncc2nc(-n3ncnc3N)n(CC)c12 [Compound 23, 2-(1,7-diethylimidazo[4,5-c]pyridin-2-yl)-1,2,4-triazol-3-amine] | ≥ 80% | ≥ 80% | ≥ 80% | 176 to 179 °C | ≥ 80% | ≥ 80% | ≥ 80% | ≥ 80% | ≥ 80% | – |
| CC=Cc1cncc2nc(-n3ncnc3N)n(CC)c12 [Compound 67, 2-(1-ethyl-7-prop-1-enylimidazo[4,5-c]pyridin-2-yl)-1,2,4-triazol-3-amine] | ≥ 80% | – | – | – | ≥ 80% | ≥ 80% | ≥ 80% | ≥ 80% | – | – |
| CCn1c(-n2ncnc2N)nc2cncc(C(C)=O)c21 [Compound 75, 1-[2-(5-amino-1,2,4-triazol-1-yl)-1-ethylimidazo[4,5-c]pyridin-7-yl]ethanone] | ≥ 80% | ≥ 80% | – | 242 to 244 °C | – | – | ≥ 80% | ≥ 80% | – | – |
| CCn1c(-n2ncnc2N)nc2cncc(-c3ccc(F)c(F)c3F)c21 [Compound 86, 2-[1-ethyl-7-(2,3,4-trifluorophenyl)imidazo[4,5-c]pyridin-2-yl]-1,2,4-triazol-3-amine] | ≥ 80% | – | – | – | ≥ 80% | ≥ 80% | ≥ 80% | ≥ 80% | ≥ 80% | – |
| CCn1c(-n2ncnc2N)nc2cncc(-c3cccnc3F)c21 [Compound 89, 2-[1-ethyl-7-(2-fluoropyridin-3-yl)imidazo[4,5-c]pyridin-2-yl]-1,2,4-triazol-3-amine] | ≥ 80% | ≥ 80% | ≥ 80% | – | ≥ 80% | ≥ 80% | – | ≥ 80% | ≥ 80% | – |
| CCn1c(-n2ncnc2N)nc2cncc(-c3cccc(Cl)c3F)c21 [Compound 90, 2-[7-(3-chloro-2-fluorophenyl)-1-ethylimidazo[4,5-c]pyridin-2-yl]-1,2,4-triazol-3-amine] | ≥ 80% | – | ≥ 80% | – | ≥ 80% | – | ≥ 80% | ≥ 80% | ≥ 80% | – |
| CCn1c(-n2ncnc2N)nc2cncc(-c3cccc(OC)c3F)c21 [Compound 93, 2-[1-ethyl-7-(2-fluoro-3-methoxyphenyl)imidazo[4,5-c]pyridin-2-yl]-1,2,4-triazol-3-amine] | ≥ 80% | – | ≥ 80% | – | ≥ 80% | – | ≥ 80% | ≥ 80% | ≥ 80% | – |
| CCn1c(-n2ncnc2N)nc2cncc(-c3cccc(F)c3F)c21 [Compound 102, 2-[7-(2,3-difluorophenyl)-1-ethylimidazo[4,5-c]pyridin-2-yl]-1,2,4-triazol-3-amine] | ≥ 80% | – | ≥ 80% | – | ≥ 80% | ≥ 80% | ≥ 80% | ≥ 80% | ≥ 80% | – |
| CCn1c(-n2ncnc2N)nc2cncc(/C(C)=N\OC/C=C(\C)Cl)c21 [Compound 153, 2-[7-[(Z)-N-[(E)-3-chlorobut-2-enoxy]-C-methyl-carbonimidoyl]-1-ethyl-imidazo[4,5-c]pyridin-2-yl]-1,2,4-triazol-3-amine] | ≥ 80% | – | – | – | ≥ 80% | – | ≥ 80% | ≥ 80% | ≥ 80% | ≥ 80% |
| CCCn1c(-n2ncnc2N)nc2cncc(C)c21 [Compound 173, 2-(7-methyl-1-propyl-imidazo[4,5-c]pyridin-2-yl)-1,2,4-triazol-3-amine] | ≥ 80% | ≥ 80% | – | – | ≥ 80% | ≥ 80% | ≥ 80% | – | – | – |
| CCCn1c(-n2ncnc2N)nc2cncc(CC)c21 [Compound 174, 2-(7-ethyl-1-propyl-imidazo[4,5-c]pyridin-2-yl)-1,2,4-triazol-3-amine] | ≥ 80% | ≥ 80% | – | – | ≥ 80% | ≥ 80% | – | – | – | ≥ 80% |
